Measurements: patent publication US8580579B2, “Hydrophilic and lipophilic rhodamines for labelling and imaging” (Max-Planck-Gesellschaft zur Foerderung der Wissenschaften …, priority 2009, dated 2013)
Entries after “also recorded” stand apart in the source; their conditions may differ. Like-named read-outs stand apart in the source and are kept apart here.

Assays:
[1] = cited from earlier work
[2] = Photostability order of commercial dyes; type: physicochemical; conditions: derived from the references to Table 1
Text: Cytochem. 2003, 51, 1699-1712], and only in 2007 its structure has been reported [B. Agnew, K. R. Gee, T. G. Nyberg (Invitrogen), US Pat. 2007/0249014]. Along with rhodamines, the following substance classes were considered as leads for developing of the new fluorescent dyes: BODIPY® derivatives (represented by BODYPY® 630/650 in FIG. 4), carbopyronines (Atto 635 and 647), cyanine dyes (Cy® 5 and Alexa 647), structurally related hybrids of cyanine dyes and benzopyranes (DY-630/635/650) and oxazines (Evoblue 30). BODIPY® derivatives have a substantial drawback: sometimes, fluorescence intensity of their bioconjugates is not directly proportional to a number of labelled sites [R. P. Haugland, A Guide to Fluorescent Probes and Labelling Technologies, Invitrogen Corp., Carlsbad, 2005, p. 53]. Moreover, it is difficult to chemically modify a BODIPY residue in such a way that it becomes water-soluble and more photostable. Carbopyronines have been extensively studied by Drexhage et al. [e.g. A. Zilles, J. Arden-Jacob, K.-H. Drexhage, N. U. Kemnitzer, M. Hammers-Schneider (Atto-tec GmbH), WO 2005/003086 (13 Jan. 2005)]. The carbopyronine dye Atto 647N has been widely used for labelling in many “nanoscopic” studies. Quite recently first STED images of the living cells were recorded at a rate of 28 frames per seconds using this dye [V. Westphal, S. O. Rizzoli, M. A. Lauterbach, D. Kamin, R. Jahn, S. W. Hell, Science 2008, 320, 246-249]. In the course of this study, the movements of synaptic vesicles inside the axons of cultured neurons were recorded with a resolution of ca. 60 nm. […] However, it is not easy to further improve the properties of the carbopyronine dye Atto 647N and make it more hydrophilic. […] Lower photostability and moderate Φfl-values of cyanine dyes make them inappropriate as lead structures. Short lifetimes of the excited states and presumably low Φfl-values of oxazines (e.g. Evoblue 30), as well as their moderate photostability, make the optimization of their properties not very promising.

[3] = Spectral properties of commercially available dyes (Table 1); type: physicochemical; conditions: commercial dyes
[4] = cited from earlier work; remark: listed apart in the source
[5] = 8 M urea solution; cited from earlier work
[6] = UV-visible absorption and fluorescence spectra of the dyes of the invention; type: physicochemical
Experimental: UV-visible absorption spectra were recorded on a Varian Cary 4000 UV-Vis spectrophotometer, and fluorescence spectra on a Varian Cary Eclipse fluorescence spectrophotometer. Reactions were carried out upon magnetic stirring in Schlenk flasks equipped with septa or reflux condensers with bubble-counters under argon using a standard manifold with vacuum and argon lines. All NMR spectra are referenced to tetramethylsilane as an internal standard (δ=0 ppm) using the signals of the residual protons of CHCl3 (7.26 ppm) in CDCl3, CHD2OD (3.31 ppm) in CD3OD, HOD (4.75 ppm) in D2O, [D5]acetone (2.04 ppm) in [D6]acetone or [D5]DMSO (2.50 ppm) in [D6]DMSO. Multiplicities of signals are described as follows: s=singlet, br. s=broad singlet, d=doublet, t=triplet, q=quartet, quint=quintet, m=multiplet, mc=centrosymmetrical multiplet. Coupling constants (J) are given in Hz. Multiplicities in the ^13C NMR spectra were determined by APT (Attached Proton Test) measurements. Low resolution mass spectra (electro spray ionization, ESI) were obtained with LCQ and ESI-TOF mass-spectrometers (MICROTOF (focus), Fa. Bruker). The MICROTOF spectrometer equipped with ESI ion source Apollo and direct injector with LC autosampler Agilent RR 1200 was used for obtaining high resolution mass spectra (ESI-HRMS). ESI-HRMS were obtained also on APEX IV spectrometer (Bruker). HPLC system (Knauer): Smartline pump 1000 (2×), UV detector 2500, column thermostat 4000 (25° C.), mixing chamber, injection valve with 20 and 100 μL loop for the analytical and preparative columns, respectively; 6-port-3-channel switching valve; analytical column: Eurospher-100 C18, 5 μm, 250×4 mm, 1.1 mL/min; preparative column: Eurospher-100-5 C18, 5 μm, 250×8 mm, 3.7 mL/min; solvent A: water+0.1% v/v trifluoroacetic acid (TFA); solvent B: MeCN+0.1% v/v TFA; detection at 636 nm (if not stated otherwise). Normal phase analytical TLC was performed on MERCK ready-to-use plates with silica gel 60 (F254) and reversed phase TLC—on RP-18W/UV254 precoated TLC plates (Macherey-Nagel). Preparative TLC was performed on MERCK HPTLC silica gel 60 plates (10×10 cm, layer thickness 0.2 mm). Column chromatography: MERCK silica gel, grade 60, 0.04-0.063 mm or Polygoprep 60-50 C18 (Macherey-Nagel).

[7] = Fluorescence quantum yield, Atto 633 as reference; type: physicochemical; conditions: Atto 633 as reference (Φfl = 64% in aqueous buffer)
Text: Moreover, intersystem crossing rates (kISC) and rates of the T1→S0 transitions were also found to be the same for both deuterated and undeuterated substances (see ref. to Table 2).

[8] = Solubility and polarity of the dyes
[9] = Excited state lifetime and FCS study under single molecule conditions; type: physicochemical
physchem = conditions: water
[10] = Chemical and storage stability of dyes and reactive derivatives; type: physicochemical

SMILES	Φfl ([1]; no solvent given in the cell) [%]	τfl ([1]; solvent not given) [ns]	order of the photoresistance [2]	Stokes shift [3] [nm]	Solubility (solvents) [4]	τfl ([1]; H2O)	ε · 10^−5 ([1]; solvent H2O) [M^−1 cm^−1]	λmax (abs.) ([1]; solvent H2O) [nm]	λmax (fl.) ([1]; solvent H2O) [nm]	Φfl in water [7] [%]	polarity [8]	solubility in water or aqueous buffers [8]	other results
CC[N+]1=c2cc3c(cc2C(C)CC1(C)C)=C(c1ccccc1C(=O)N(C)CCCC(=O)O)c1cc2c4c(c1C3(C)C)CCCN4CCC2.[O-][Cl+3]([O-])([O-])[O-] (mixture of isomers) [Atto 647N]	65	3.4	Atto 633>Atto 647N>Alexa® 647>Alexa® 633>Cy® 5	25	DMF, DMSO	–	–	–	–	–	–	–	ε · 10^−5 ([1]; solvent PBS): 1.5 M^−1 cm^−1; λmax (abs.) ([1]; solvent PBS): 644 nm; λmax (fl.) ([1]; solvent PBS): 669 nm
CC[N+]1=C(C=CC=CC=C2N(CCCCCC(=O)O)c3ccc(S(=O)(=O)O)cc3C2(C)C)C(C)(C)c2cc(S(=O)(=O)[O-])ccc21 [Cy ® 5]	–	–	Atto 633>Atto 647N>Alexa® 647>Alexa® 633>Cy® 5	–	–	0.9 (H2O)^1 ns	2.5	647	663	–	–	–	Φfl ([1]; PBS): 27%; τfl ([1]; PBS): 1 (PBS)^11 ns
CC1=CC(C)(C)N2CCCc3c4c(cc1c32)C(c1c(F)c(F)c(F)c(F)c1C(=O)[O-])=c1cc2c3c(c1O4)CCC[N+]=3C(C)(C)C=C2C [Compound 4]	–	–	–	–	–	–	–	–	–	63	non-polar	low solubility in water or aqueous buffers; also recorded: insoluble in water	absorption maximum [5]: 630 nm; emission maximum [5]: 655 nm; λmax (abs.) ([6]; solvent MeOH): 616 nm; λmax (fl.) ([6]; solvent MeOH): 641 nm; Solubility (solvents) [8]: CHCl3, THF; solubility in organic solvents [8]: soluble in most organic solvents
CC[N+]1=c2cc3c(cc2CCC1)=C(c1ccccc1C(=O)N(C)CCCC(=O)O)c1ccc(N(C)C)cc1C3(C)C [Atto 633]	64	–	Atto 633>Atto 647N>Alexa® 647>Alexa® 633>Cy® 5	–	DMF, DMSO,; also recorded: (H2O) MeCN^2	3.2 (H2O) ns	1.3	629	657	–	–	–	–
[2H]C1=C(C([2H])([2H])S(=O)(=O)O)c2cc3c(c4c2N(CCC4)C1(C([2H])([2H])[2H])C([2H])([2H])[2H])Oc1c2c4c(cc1=C3c1c(F)c(F)c(F)c(F)c1C(=O)N(C)CCC(=O)O)C(C([2H])([2H])S(=O)(=O)[O-])=C([2H])C(C([2H])([2H])[2H])(C([2H])([2H])[2H])[N+]=4CCC2 [Compound 6D]	–	–	–	–	–	–	–	–	–	78	polar; also recorded: hydrophilic	soluble in water or aqueous buffers	τfl (excited state lifetime) [9]: 3.67^21 ns; solubility (physchem): > 100 mM; Stokes shift ([6]; dyes of the invention): 23 nm; ε · 10^−5 ([6]; solvent H2O): 0.92 M^−1 cm^−1; λmax (abs.) ([6]; solvent H2O): 637 nm; λmax (fl.) ([6]; solvent H2O): 660 nm; stability in methanol or methanol-containing solutions [10]: rapid esterification of the β-alanine fragment with methanol
CCN(CC)CC.CCN(CC)CC.CN1c2cc3c(cc2-c2sc(S(=O)(=O)O)cc2C1(C)C)C(c1c(F)c(SCC(=O)O)cc(F)c1S(=O)(=O)[O-])=c1cc2c(cc1O3)=[N+](C)C(C)(C)c1cc(S(=O)(=O)O)sc1-2 [Alexa ® 633]	–	3.2	Atto 633>Atto 647N>Alexa® 647>Alexa® 633>Cy® 5	15	DMSO, H2O^3	–	–	–	–	–	–	–	ε · 10^−5 ([1]; solvent MeOH): 1.0 M^−1 cm^−1; λmax (abs.) ([1]; solvent MeOH): 632 nm; λmax (fl.) ([1]; solvent MeOH): 647 nm
